Measurements reported in paper PMC5384453, “A multi-functional PEGylated gold(III) compound: potent anti-cancer properties and self-assembly into nanostructures for drug co-delivery” (Chemical Science, 2016).
Like-named read-outs stand apart in the source and are kept apart here.

Tests used:
[1] = tested on: HeLa; assay: In vitro cytotoxicity, MTT assay; format: cell-based, human; details: for IC50: HeLa; for Toxicity toward cancer cells compared to that toward CCD-19Lu cells, HeLa: IC50 of CCD-19Lu cells / IC50 of HeLa; for Toxicity toward cancer cells compared to that toward MIHA cells, HeLa: IC50 of MIHA cells / IC50 of HeLa; for Toxicity toward cancer cells compared to that toward NCM460 cells, HeLa: IC50 of NCM460 cells / IC50 of HeLa
Procedure: (§1) In vitro cytotoxicity assays. HeLa, NCI-H460, HCT116, A2780, A2780cis and
(§2) cells), respectively, were seeded in 96-well plates for 24 h. The cells were then treated with a serial concentration of gold(III) complexes and incubated at 37 °C under a 5% CO2 atmosphere for 72 h. For nanostructures of 1, 2 and NC1, they were dissolved in
(§3) cisplatin were dissolved in culture medium-DMSO solution mixture (99:1, v/v).
(§4) After incubation for 72 h, MTT in PBS solution (5 mg/mL, 10 μL) was added to each well. The plates were incubated at 37 °C under a 5% CO2 atmosphere for another 4 h, and the cells were lysed by the addition of SDS solution (10%, w/w) with 0.01 M HCl (100 μL). After incubation in dark at 37 °C overnight, the cell viability after treatment was determined by a microtitre plate reader monitoring at the absorbance at 590 nm,

[2] = tested on: NCI-H460; assay: In vitro cytotoxicity, MTT assay; format: cell-based, human; details: for Toxicity toward cancer cells compared to that toward CCD-19Lu cells, NCI-H460: IC50 of CCD-19Lu cells / IC50 of NCI-H460; for Toxicity toward cancer cells compared to that toward MIHA cells, NCI-H460: IC50 of MIHA cells / IC50 of NCI-H460; for Toxicity toward cancer cells compared to that toward NCM460 cells, NCI-H460: IC50 of NCM460 cells / IC50 of NCI-H460; for IC50: NCI-H460, MTT assay, 72 h incubation
Procedure: as §1, §2, §3, §4

[3] = tested on: HCT116; assay: In vitro cytotoxicity, MTT assay; format: cell-based, human; details: for IC50: HCT116, MTT assay, 72 h incubation; for Toxicity toward cancer cells compared to that toward CCD-19Lu cells, HCT-116: IC50 of CCD-19Lu cells / IC50 of HCT-116; for Toxicity toward cancer cells compared to that toward MIHA cells, HCT-116: IC50 of MIHA cells / IC50 of HCT-116; for Toxicity toward cancer cells compared to that toward NCM460 cells, HCT-116: IC50 of NCM460 cells / IC50 of HCT-116
Procedure: as §1, §2, §3, §4

[4] = tested on: A2780; assay: In vitro cytotoxicity, MTT assay; format: cell-based, human; details: for IC50: A2780, MTT assay, 72 h incubation; for Toxicity toward cancer cells compared to that toward CCD-19Lu cells, A2780: IC50 of CCD-19Lu cells / IC50 of A2780; for Toxicity toward cancer cells compared to that toward MIHA cells, A2780: IC50 of MIHA cells / IC50 of A2780; for Toxicity toward cancer cells compared to that toward NCM460 cells, A2780: IC50 of NCM460 cells / IC50 of A2780
Procedure: as §1, §2, §3, §4

[5] = tested on: A2780cis; assay: In vitro cytotoxicity, MTT assay; format: cell-based, human; details: for IC50: A2780cis, MTT assay, 72 h incubation; for Resistance found in A2780cis: IC50 of A2780cis cells / IC50 of A2780 cells; for Toxicity toward cancer cells compared to that toward CCD-19Lu cells, A2780cis: IC50 of CCD-19Lu cells / IC50 of A2780cis; for Toxicity toward cancer cells compared to that toward MIHA cells, A2780cis: IC50 of MIHA cells / IC50 of A2780cis; for Toxicity toward cancer cells compared to that toward NCM460 cells, A2780cis: IC50 of NCM460 cells / IC50 of A2780cis
Procedure: as §1, §2, §3, §4

[6] = tested on: A2780adr; assay: In vitro cytotoxicity, MTT assay; format: cell-based, human; details: for IC50: A2780adr; for Resistance found in A2780adr: IC50 of A2780adr cells / IC50 of A2780 cells; for Toxicity toward cancer cells compared to that toward CCD-19Lu cells, A2780adr: IC50 of CCD-19Lu cells / IC50 of A2780adr; for Toxicity toward cancer cells compared to that toward MIHA cells, A2780adr: IC50 of MIHA cells / IC50 of A2780adr; for Toxicity toward cancer cells compared to that toward NCM460 cells, A2780adr: IC50 of NCM460 cells / IC50 of A2780adr
Procedure: as §1, §2, §3, §4

[7] = tested on: MIHA; assay: In vitro cytotoxicity, MTT assay; format: cell-based
Procedure: as §1, §2, §3, §4

[8] = tested on: NCM460; assay: In vitro cytotoxicity, MTT assay; format: cell-based, human; details: 72 h incubation
Procedure: as §1, §2, §3, §4

[9] = tested on: CCD-19Lu; assay: In vitro cytotoxicity, MTT assay; format: cell-based, human; details: 72 h incubation
Procedure: as §1, §2, §3, §4

[10] = tested on: HCT116 cells; assay: Hydrolysis in live cells, UPLC-QTOF-MS of cell lysates; format: in vitro ADME, human; details: 2 μM, 24 h
Procedure: Hydrolysis of the gold(III) complexes in live cells was examined by ultra-performance liquid chromatography coupled quadrupole-time-of-flight mass spectrometry (UPLC-QTOF-MS). Colon cancer cells (HCT116) were treated with 1, 2 and 3 (2 μM) for 24 h, harvested and lysed in an acetonitrile–water solution mixture (3 : 1, v/v) prior to UPLC-QTOF-MS analysis. […] Therefore, the peak is attributable to the major metabolite of 1 formed in HCT116 cells. […] This should be attributable to the higher stability of the amide bond versus the ester bond in vitro. […]
which reflected the amount of blue formazan formed. IC50 values were then determined by CompuSyn S6 from three independent measurements.
Study on the release of hydrolyzed product from 1 and 2 in aqueous buffer solutions by ICP-MS. The nanostructures of gold(III) complex was dissolved in PBS solution (pH 7.4; 1 mg/mL) or sodium acetate buffer solution (pH 4.0; 1 mg/mL) and was dialyzed against 1 L of the buffer solution at 37 °C using semipermeable minidialysis tubes (molecular weight cut-off = 1,000 Da; GE Healthcare). At a predetermined time, an aliquot of solution was removed and dissolved in HNO3/HCl solution mixture (9:1, v/v; volume of aliquot: volume of acid mixture = 1:3). The solution mixture was heated at 65 °C with shaking overnight, and the gold content was determined by ICP-MS from three independent aliquots.
Study on the hydrolysis of 1 and 2 in aqueous buffer solutions by 1H NMR. […]
The flow rate was 0.4 mL/min and the injection volume was 2 µL. The UPLC-QTOF-MS chromatograms of 1, 3, 4 and solvent control in acetonitrile were also recorded for the interpretation of UPLC-QTOF-MS chromatograms of the cell lysate. […]
Au1a (2 µM; with 1 vol% DMSO). […] An aliquot of the cell suspension was subjected to Bio-rad protein assay with a microtitre plate reader at the absorbance at 595 nm, using bovine serum albumin as the protein standard. […] The solution mixture was heated at 65 °C with shaking overnight, and the gold content was determined by ICP-MS. […]

[11] = 72 h, read-out: Total dose at IC50
[12] = MTT assay, 72 h incubation, read-out: IC50

Row | Compound | IC50 [1, 12] [nM] | Toxicity toward cancer cells compared to that toward MIHA cells, HeLa [1] | Toxicity toward cancer cells compared to that toward NCM460 cells, HeLa [1] | Toxicity toward cancer cells compared to that toward MIHA cells, NCI-H460 [2] | Toxicity toward cancer cells compared to that toward NCM460 cells, NCI-H460 [2] | IC50 [2] [nM] | IC50 [3] [nM] | Toxicity toward cancer cells compared to that toward MIHA cells, HCT-116 [3] | Toxicity toward cancer cells compared to that toward NCM460 cells, HCT-116 [3] | IC50 [4] [nM] | Toxicity toward cancer cells compared to that toward MIHA cells, A2780 [4] | Toxicity toward cancer cells compared to that toward NCM460 cells, A2780 [4] | IC50 [5] [nM] | Resistance found in A2780cis [5] | Toxicity toward cancer cells compared to that toward NCM460 cells, A2780cis [5] | IC50 [6, 12] [nM] | Resistance found in A2780adr [6] | Toxicity toward cancer cells compared to that toward MIHA cells, A2780adr [6] | Toxicity toward cancer cells compared to that toward NCM460 cells, A2780adr [6] | IC50 [7, 12] [nM] | other results
1 | [Au(TPP–COO–PEG5000–OCH3)]Cl [Compound 1] | 1910 ± 480 | 7.6 | 8.6 | 17.1 | 19.3 | 850 ± 70 | 390 ± 30 | 37.2 | 42.1 | 510 ± 90 | 28.4 | 32.2 | 640 ± 30 | 1.27 | 25.6 | 1510 ± 400 | 2.94 | 9.1 | 10.9 | 14500 ± 2550 | IC50 ([1]; 72 h, read-out: 1 at IC50): 1910 nM; IC50 [1, 11]: 1910 nM; Toxicity toward cancer cells compared to that toward CCD-19Lu cells, HeLa [1]: 8.0; Toxicity toward cancer cells compared to that toward CCD-19Lu cells, NCI-H460 [2]: 17.9; Toxicity toward cancer cells compared to that toward CCD-19Lu cells, HCT-116 [3]: 39.0; Toxicity toward cancer cells compared to that toward CCD-19Lu cells, A2780 [4]: 29.8; Toxicity toward cancer cells compared to that toward CCD-19Lu cells, A2780cis [5]: 23.8; Toxicity toward cancer cells compared to that toward MIHA cells, A2780cis [5]: 22.7; IC50 ([6]; 72 h, read-out: 1 at IC50): 1510 nM; IC50 [6, 11]: 1510 nM; Toxicity toward cancer cells compared to that toward CCD-19Lu cells, A2780adr [6]: 10.1; IC50 ([7]; 72 h, read-out: 1 at IC50): 14500 nM; IC50 [7, 11]: 14500 nM; IC50 [8]: 16400 ± 2450 nM; IC50 [9]: 15200 ± 1930 nM; hydrolysis / release of [Au(TPP–COOH)]+ in cells [10]: hydrolysis of the ester bond of 1 in HCT116 cells to form [Au(TPP–COOH)]^+
2 | [Au(TPP–CONH–PEG5000–OCH3)]Cl [Compound 2] | 46500 ± 4400 | 2.5 | 1.5 | 4.7 | 2.9 | 24700 ± 4620 | 8240 ± 220 | 14.0 | 8.6 | 13400 ± 180 | 8.6 | 5.3 | 47200 ± 8620 | 3.57 | 1.5 | > 120000 | > 9.09 | < 1.0 | < 0.6 | 115000 ± 17100 | Toxicity toward cancer cells compared to that toward MIHA cells, A2780cis [5]: 2.4; IC50 [8]: 71000 ± 6420 nM; IC50 [9]: > 100000 nM; hydrolysis / release of [Au(TPP–COOH)]+ in cells [10]: no release of [Au(TPP–COOH)]^+ can be found
3 | C1=Cc2nc1c(-c1ccccc1)c1ccc([n-]1)c(-c1ccccc1)c1nc(c(-c3ccccc3)c3ccc([n-]3)c2-c2ccccc2)C=C1.[Au+3].[Cl-] [Au1a, [Au(TPP)]Cl, reference compound] | 660 ± 40 | 0.6 | 0.1 | 1.7 | 0.3 | 230 ± 10 | 90 ± 20 | 4.4 | 0.8 | 120 ± 20 | 3.3 | 0.6 | 180 ± 10 | 1.49 | 0.4 | 1130 ± 150 | 9.09 | 0.4 | 0.06 | 400 ± 70 | Toxicity toward cancer cells compared to that toward CCD-19Lu cells, HeLa [1]: 0.3; Toxicity toward cancer cells compared to that toward CCD-19Lu cells, NCI-H460 [2]: 1.0; Toxicity toward cancer cells compared to that toward CCD-19Lu cells, HCT-116 [3]: 2.6; Toxicity toward cancer cells compared to that toward CCD-19Lu cells, A2780 [4]: 1.9; Toxicity toward cancer cells compared to that toward CCD-19Lu cells, A2780cis [5]: 1.3; Toxicity toward cancer cells compared to that toward CCD-19Lu cells, A2780adr [6]: 0.2; IC50 [8]: 70 ± 10 nM; IC50 [9]: 230 ± 40 nM
